Measured values taken from patent US10385103B2, “Cell-permeable (ICP)-SOCS3 recombinant protein and uses thereof” (CELLIVERY THERAPEUTICS, INC., priority 2014, dated 2019).

System: RAW 264.7 cells
Test: Quantitative cell-permeability of FITC-labeled aMTD- or rPeptide-fused CRA recombinant proteins (flow cytometry)
Assay type: cell-based
Conditions: for Relative Ratio to aMTD AVE: cell-permeability of rPeptide-fused CRA recombinant protein relative to average of 240 aMTDs
Procedure, shortened: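 Uptake of fluorescently labeled, peptide-fused cargo proteins was quantified by flow cytometry (Guava, Millipore) and analyzed in FlowJo software. RAW 264.7 cells received 10 μM FITC-labeled protein for 1 hour at 37° C., were rinsed three times with cold PBS, and were trypsinized with 0.25% tripsin/EDTA for 20 minutes at 37° C. to remove bound protein before measurement. Permeability was expressed relative to reference proteins.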

[1] = cell-permeability of aMTD-fused CRA recombinant protein relative to negative control (A: rP38)
[2] = cell-permeability of aMTD-fused CRA recombinant protein relative to reference CPP (B: MTM12)
[3] = cell-permeability of aMTD-fused CRA recombinant protein relative to reference CPP (C: MTD85)
[4] = cell-permeability relative to negative control rP38 (A type), aMTD-fused CRA recombinant protein, 10 μM FITC-labeled, 1 hour, 37° C., RAW 264.7 cells
[5] = cell-permeability relative to reference CPP MTD85 (C type), aMTD-fused CRA recombinant protein, 10 μM FITC-labeled, 1 hour, 37° C., RAW 264.7 cells
[6] = cell-permeability relative to reference CPP MTM12 (B type), aMTD-fused CRA recombinant protein, 10 μM FITC-labeled, 1 hour, 37° C., RAW 264.7 cells
[7] = 10 μM FITC-labeled, 1 hour, 37° C., RAW 264.7 cells
[8] = relative cell-permeability of rPeptide vs reference A (not defined)
[9] = relative cell-permeability of rPeptide vs reference CPP B: MTM12
[10] = relative cell-permeability of rPeptide vs reference CPP C: MTD85

Substance	Relative Ratio (Fold) A [1] [Fold]	Relative Ratio (Fold) B [2] [Fold]	Relative Ratio (Fold) C [3] [Fold]	also measured
746 (VAIIVVAPALAP; Amino acid Sequence of aMTD746) [compound 746]	7.6	4.4	2.6	
743 (AIAIALVPVALP; Amino acid Sequence of aMTD743) [compound 743]	7.4	4.9	2.5	
522 (ALLVIAVPAVAP; Amino acid Sequence of aMTD522) [compound 522]	22.7	15.2	7.7	
84 (AAVAAPLLLALP; Amino acid Sequence of aMTD84) [compound 84]				Relative Ratio (Fold) A [4]: 1.5 Fold; Relative Ratio (Fold) C [5]: 0.5 Fold; Relative Ratio (Fold) B [6]: 1.0 Fold
784 (VAALPAVALVVP; Amino acid Sequence of aMTD784) [compound 784]				Relative Ratio (Fold) A [4]: 7.1 Fold; Relative Ratio (Fold) C [5]: 2.4 Fold; Relative Ratio (Fold) B [6]: 4.7 Fold
12 (LLAAVPAVLLAP; Amino acid Sequence of aMTD12) [compound 12]				Relative Ratio (Fold) A [4]: 2.2 Fold; Relative Ratio (Fold) C [5]: 0.7 Fold; Relative Ratio (Fold) B [6]: 1.5 Fold
847 (LVAIVVLPAVAP; Amino acid Sequence of aMTD847) [compound 847]	50.2	33.4	16.9	
828 (IALLAAPIIAVP; Amino acid Sequence of aMTD828) [compound 828]	36.8	24.6	12.4	
910 (VAALLPAVVVAP; Amino acid Sequence of aMTD910) [compound 910]	149.5	99.4	50.2	
544 (IVALIVAPAAVP; Amino acid Sequence of aMTD544) [compound 544]	23.4	15.6	7.9	
139 (TGSTNSPTCTST; Amino acid Sequence of rPeptide ID 139) [compound 139]				Relative Ratio to aMTD AVE [7]: 0.17
605 (VIAAVLAPVAVP; Amino acid Sequence of aMTD605) [compound 605]	11.0	7.4	3.7	
905 (AVIAVAPLVVAP; Amino acid Sequence of aMTD905) [compound 905]	44.0	29.5	14.9	
826 (LVALAAPIIAVP; Amino acid Sequence of aMTD826) [compound 826]	49.2	32.9	18.6	
635 (GSTGGSQQNNQY; Amino acid Sequence of rPeptide ID 635) [compound 635]				Relative Ratio to aMTD AVE [7]: 0.07
604 (VALIAVAPAVVP; Amino acid Sequence of aMTD604) [compound 604]				Relative Ratio (Fold) A [4]: 4.3 Fold; Relative Ratio (Fold) C [5]: 1.5 Fold; Relative Ratio (Fold) B [6]: 2.5 Fold
483 (ILAAAIIPAALP; Amino acid Sequence of aMTD483) [compound 483]				Relative Ratio (Fold) A [4]: 6.8 Fold; Relative Ratio (Fold) C [5]: 2.3 Fold; Relative Ratio (Fold) B [6]: 4.5 Fold
16 (NNSCTTYTNGSQ; Amino acid Sequence of rPeptide ID 16) [compound 16]				Relative Ratio to aMTD AVE [7]: 0.08; Relative Ratio (Fold) A [8]: 1.6 Fold; Relative Ratio (Fold) B [9]: 1.1 Fold; Relative Ratio (Fold) C [10]: 0.5 Fold
3 (AALLVPAAVLAP; Amino acid Sequence of aMTD3) [compound 3]	27.0	18.0	9.1	
424 (AVVVAAPVLALP; Amino acid Sequence of aMTD424) [compound 424]				Relative Ratio (Fold) A [4]: 6.6 Fold; Relative Ratio (Fold) C [5]: 2.2 Fold; Relative Ratio (Fold) B [6]: 4.4 Fold
67 (LDAEVPLADDVP; Amino acid Sequence of rPeptide ID 67) [compound 67]				Relative Ratio to aMTD AVE [7]: 0.08; Relative Ratio (Fold) A [8]: 1.5 Fold; Relative Ratio (Fold) B [9]: 0.9 Fold; Relative Ratio (Fold) C [10]: 0.5 Fold

Substance	Relative Ratio (Fold) A [1] [Fold]	Relative Ratio (Fold) B [2] [Fold]	Relative Ratio (Fold) C [3] [Fold]	also measured
2 (AAAVPLLAVVVP; Amino acid Sequence of aMTD2) [compound 2]	40.9	27.2	13.8	Relative Ratio (Fold) A (relative cell-permeability of aMTD vs reference A (not defined)): 40.9 Fold; Relative Ratio (Fold) B (relative cell-permeability of aMTD vs reference CPP B: MTM12): 27.2 Fold; Relative Ratio (Fold) C (relative cell-permeability of aMTD vs reference CPP C: MTD85): 13.8 Fold
105 (LLALAPAALLAP; Amino acid Sequence of aMTD105) [compound 105]				Relative Ratio (Fold) A [4]: 4.0 Fold; Relative Ratio (Fold) C [5]: 1.3 Fold; Relative Ratio (Fold) B [6]: 2.6 Fold
343 (IVAVALPALVAP; Amino acid Sequence of aMTD343) [compound 343]	19.4	12.9	6.5	
602 (VIVALAAPVLAP; Amino acid Sequence of aMTD602) [compound 602]	9.9	5.8	3.4	
850 (LVIALAAPVALP; Amino acid Sequence of aMTD850) [compound 850]	8.8	5.9	3.0	
786 (LVAIAPLAVLAP; Amino acid Sequence of aMTD786) [compound 786]	21.2	14.2	7.2	
763 (VAVLIAVPALAP; Amino acid Sequence of aMTD763) [compound 763]	12.3	7.2	4.2	
13 (AAALVPVVALLP; Amino acid Sequence of aMTD13) [compound 13]				Relative Ratio (Fold) A [4]: 7.0 Fold; Relative Ratio (Fold) C [5]: 2.4 Fold; Relative Ratio (Fold) B [6]: 4.7 Fold
425 (AVVAIAPVLALP; Amino acid Sequence of aMTD425) [compound 425]	9.4	6.3	3.2	
83 (LAVAAPLALALP; Amino acid Sequence of aMTD83) [compound 83]				Relative Ratio (Fold) A [4]: 1.4 Fold; Relative Ratio (Fold) C [5]: 0.5 Fold; Relative Ratio (Fold) B [6]: 0.9 Fold
810 (VIVLAAPALAAP; Amino acid Sequence of aMTD810) [compound 810]	120.0	80.3	40.6	
507 (VAIALAPVVVAP; Amino acid Sequence of aMTD907) [compound 507]	8.1	5.4	2.8	
329 (LPVLVPVVPVVP; Amino acid Sequence of rPeptide ID 329) [compound 329]				Relative Ratio to aMTD AVE [7]: 0.23
312 (VALLAPAVVVAP; Amino acid Sequence of aMTD912) [compound 312]	19.9	13.3	6.7	
504 (LIVALAVPALAP; Amino acid Sequence of aMTD504) [compound 504]				Relative Ratio (Fold) A [4]: 3.3 Fold; Relative Ratio (Fold) C [5]: 1.1 Fold; Relative Ratio (Fold) B [6]: 2.2 Fold
97 (ALLAAPPALLAL; Amino acid Sequence of rPeptide ID 97) [compound 97]				Relative Ratio to aMTD AVE [7]: 0.41
851 (VLAVVLPAVALP; Amino acid Sequence of aMTD851) [compound 851]	96.6	64.7	32.7	
891 (ILAVAAIPAALP; Amino acid Sequence of aMTD891) [compound 891]	44.7	29.9	15.1	
868 (VLVAAILPAAIP; Amino acid Sequence of aMTD868) [compound 868]	14.9	10.0	5.0	
665 (LAIVLAAPVAVP; Amino acid Sequence of aMTD665) [compound 665]	14.7	9.9	5.0	
322 (VVAIVLPALAAP; Amino acid Sequence of aMTD322) [compound 322]	17.6	11.7	5.9	
